Assay results from patent US20190367516A1 (Bayer Pharma Aktiengesellschaft, priority 2015, published 2019).
Where two headings read alike, the source gives them in different places.

Assays:
human M2 receptor [1] = biological target: T1, human M2 receptor (Homo sapiens, UniProt P08172); type: cell-based; conditions: α >1 = positive cooperativity
T1 sequence (P08172 1-466): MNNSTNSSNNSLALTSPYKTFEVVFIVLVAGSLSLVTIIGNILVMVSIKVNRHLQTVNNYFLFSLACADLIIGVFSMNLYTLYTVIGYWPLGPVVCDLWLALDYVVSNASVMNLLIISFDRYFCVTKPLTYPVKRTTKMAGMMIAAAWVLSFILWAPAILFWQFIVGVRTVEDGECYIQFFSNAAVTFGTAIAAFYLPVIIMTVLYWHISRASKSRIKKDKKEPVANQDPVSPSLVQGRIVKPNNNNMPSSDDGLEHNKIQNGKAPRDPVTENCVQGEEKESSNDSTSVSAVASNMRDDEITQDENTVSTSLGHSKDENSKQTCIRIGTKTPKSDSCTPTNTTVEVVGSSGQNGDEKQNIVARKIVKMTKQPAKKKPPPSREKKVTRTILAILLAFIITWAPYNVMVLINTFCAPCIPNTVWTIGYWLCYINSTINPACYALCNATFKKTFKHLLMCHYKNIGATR
Experimental: B-1.2. Determination of Positive Cooperativity (α Factor)
In contrast to the EC50 determination of the test substances (see B-1.1), however, this is not done using one acetylcholine concentration; instead, every concentration of the test substance is combined with an acetylcholine 8-point dose-response curve. […] The shift in the acetylcholine dose-response curve in the presence of increasing concentrations of the test substance is analysed and quantified by means of GraphPad PRISM (Allosteric EC50 shift). […] Positive cooperativity is the hallmark of a positive allosteric modulator. […] The greater the magnitude of the α value, the greater the extent of cooperativity between orthosteric and allosteric.

human M2 receptor [2] = biological target: T1, human M2 receptor; conditions: Receptor activity EC50, M2-GIRK1/4 activation test, acetylcholine at EC20; allosteric potency; in some cases mean values from two or more determinations
[3] = shift in the acetylcholine dose-response curve (Allosteric EC50 shift, GraphPad PRISM)

Cooperativity (alpha factor) (human M2 receptor [1]; [3])	EC50 (human M2 receptor [2])	Compound	Cooperativity (alpha factor) (human M2 receptor [1]; shift of acetylcholine dose-response curve (Allosteric EC50 shift))
4	112 nM	CC[C@@H](NC(=O)c1cn(-c2ccc(F)cc2F)c2nc(N3CCC4(C3)CC4(F)F)ccc2c1=O)C(F)(F)F (mixture of isomers) [Example 29, 7-(1,1-Difluoro-5-azaspiro[2.4]hept-5-yl)-1-(2,4-difluorophenyl)-4-oxo-N-[(2R)-1,1,1-trifluorobutan-2-yl]-1,4-dihydro-1,8-naphthyridine-3-carboxamide (diastereomer mixture)]	
11	95 nM	CC[C@@H](NC(=O)c1cn(-c2ccc(F)cc2F)c2nc(N3CCC(C)(F)C3)ccc2c1=O)C(F)(F)F (mixture of isomers) [Example 30, 1-(2,4-Difluorophenyl)-7-(3-fluoro-3-methylpyrrolidin-1-yl)-4-oxo-N-[(2R)-1,1,1-trifluorobutan-2-yl]-1,4-dihydro-1,8-naphthyridine-3-carboxamide (diastereomer mixture)]	
7	60 nM	CC[C@@H](NC(=O)c1cn(-c2ccc(F)cc2F)c2nc(N3CCC(C)(OC)C3)ccc2c1=O)C(F)(F)F (mixture of isomers) [Example 191, 1-(2,4-Difluorophenyl)-7-[3-methoxy-3-methylpyrrolidin-1-yl]-4-oxo-N-[(2R)-1,1,1-trifluorobutan-2-yl]-1,4-dihydro-1,8-naphthyridine-3-carboxamide]	
55	33 nM	O=C(NC(c1cccc(F)c1)C(F)(F)F)c1cn(-c2ccc(F)cc2F)c2nc(N3C[C@@H](O)CC3=O)ccc2c1=O (mixture of isomers) [Example 272, 1-(2,4-Difluorophenyl)-7-[(4S)-4-hydroxy-2-oxopyrrolidin-1-yl]-4-oxo-N-[2,2,2-trifluoro-1-(3-fluorophenyl)ethyl]-1,4-dihydro-1,8-naphthyridine-3-carboxamide]	
34	66 nM	O=C(NC(C1CC1)C(F)(F)F)c1cn(-c2ccccc2Cl)c2nc(N3C[C@@H](O)CC3=O)ccc2c1=O (mixture of isomers) [Example 279, 1-(2-Chlorophenyl)-N-[1-cyclopropyl-2,2,2-trifluoroethyl]-7-[(4S)-4-hydroxy-2-oxopyrrolidin-1-yl]-4-oxo-1,4-dihydro-1,8-naphthyridine-3-carboxamide]	
11	40 nM	CC1(F)CCN(c2ccc3c(=O)c(C(=O)NC45CC6CC(CC(C6)C4)C5)cn(-c4ccc(F)cc4F)c3n2)C1 (racemic) [Example 9, rac-1-(2,4-Difluorophenyl)-7-(3-fluoro-3-methylpyrrolidin-1-yl)-4-oxo-N-(tricyclo[3.3.1.1^3,7]dec-1-yl)-1,4-dihydro-1,8-naphthyridine-3-carboxamide]	
20	96 nM	CCC(NC(=O)c1cn(-c2ccc(F)cc2F)c2nc(N3CCN(C(=O)OC)CC3)ccc2c1=O)C(F)(F)F (racemic) [Example 23, rac-Methyl 4-{8-(2,4-difluorophenyl)-5-oxo-6-[(1,1,1-trifluorobutan-2-yl)carbamoyl]-5,8-dihydro-1,8-naphthyridin-2-yl}piperazine-1-carboxylate]	
15	56 nM	CN(C)c1ccc2c(=O)c(C(=O)NC(c3c(Cl)cccc3Cl)C(F)(F)F)cn(-c3ccc(F)cc3F)c2n1 (racemic) [Example 56, rac-N-[1-(2,6-Dichlorophenyl)-2,2,2-trifluoroethyl]-1-(2,4-difluorophenyl)-7-(dimethylamino)-4-oxo-1,4-dihydro-1,8-naphthyridine-3-carboxamide]	
26	118 nM	CCC(NC(=O)c1cn(-c2ccc(F)cc2F)c2nc(NCCF)ccc2c1=O)C(F)(F)F (racemic) [Example 85, rac-1-(2,4-Difluorophenyl)-7-[(2-fluoroethyl)amino]-4-oxo-N-[1,1,1-trifluorobutan-2-yl]-1,4-dihydro-1,8-naphthyridine-3-carboxamide]	
15	28 nM	CCC(NC(=O)c1cn(-c2ccc(F)cc2F)c2nc(N(C)CCF)ccc2c1=O)C(F)(F)F (racemic) [Example 104, rac-1-(2,4-Difluorophenyl)-7-[(2-fluoroethyl)(methyl)amino]-4-oxo-N-[1,1,1-trifluorobutan-2-yl]-1,4-dihydro-1,8-naphthyridine-3-carboxamide]	
14	57 nM	CC(C)CC(NC(=O)c1cn(-c2ccc(F)cc2F)c2nc(N(C)CCF)ccc2c1=O)C(F)(F)F (racemic) [Example 107, rac-1-(2,4-Difluorophenyl)-7-[(2-fluoroethyl)(methyl)amino]-4-oxo-N-[1,1,1-trifluoro-4-methylpentan-2-yl]-1,4-dihydro-1,8-naphthyridine-3-carboxamide]	
8	295 nM	CC(NC(=O)c1cn(-c2ccc(F)cc2F)c2nc(NCC(F)F)ccc2c1=O)C(F)(F)F (racemic) [Example 121, rac-7-[(2,2-Difluoroethyl)amino]-1-(2,4-difluorophenyl)-4-oxo-N-[1,1,1-trifluoropropan-2-yl]-1,4-dihydro-1,8-naphthyridine-3-carboxamide]	
16	140 nM	CC[C@@H](NC(=O)c1cn(-c2ccc(F)cc2F)c2nc(N3CCC(C)(O)C3=O)ccc2c1=O)C(F)(F)F (mixture of isomers) [Example 194, 1-(2,4-Difluorophenyl)-7-[3-hydroxy-3-methyl-2-oxopyrrolidin-1-yl]-4-oxo-N-[(2R)-1,1,1-trifluorobutan-2-yl]-1,4-dihydro-1,8-naphthyridine-3-carboxamide]	
10	120 nM	CC[C@@H](NC(=O)c1cn(-c2ccc(F)cc2F)c2nc(N3CCC(C)(OC)C3=O)ccc2c1=O)C(F)(F)F (mixture of isomers) [Example 197, 1-(2,4-Difluorophenyl)-7-[3-methoxy-3-methyl-2-oxopyrrolidin-1-yl]-4-oxo-N-[(2R)-1,1,1-trifluorobutan-2-yl]-1,4-dihydro-1,8-naphthyridine-3-carboxamide]	
8	34 nM	CCC(NC(=O)c1cn(-c2ccccc2F)c2nc(N(C)C)ccc2c1=O)C(F)(F)F (racemic) [Example 204, rac-7-(Dimethylamino)-1-(2-fluorophenyl)-4-oxo-N-[1,1,1-trifluorobutan-2-yl]-1,4-dihydro-1,8-naphthyridine-3-carboxamide]	
14	107 nM	O=C(NC(c1ccccc1Cl)C(F)(F)F)c1cn(-c2ccc(F)cc2F)c2nc(N3CCCC(O)C3=O)ccc2c1=O (racemic) [Example 206, rac-N-[(1R)-(2-Chlorophenyl)-2,2,2-trifluoroethyl]-1-(2,4-difluorophenyl)-7-[3-hydroxy-2-oxopiperidin-1-yl]-4-oxo-1,4-dihydro-1,8-naphthyridine-3-carboxamide]	
35	21 nM	O=C(NC(c1ccccc1Cl)C(F)(F)F)c1cn(-c2ccc(F)cc2F)c2nc(N3C[C@@H](O)CC3=O)ccc2c1=O (mixture of isomers) [Example 211, N-[1-(2-Chlorophenyl)-2,2,2-trifluoroethyl]-1-(2,4-difluorophenyl)-7-[(4S)-4-hydroxy-2-oxopyrrolidin-1-yl]-4-oxo-1,4-dihydro-1,8-naphthyridine-3-carboxamide]	
43	107 nM	CC(NC(=O)c1cn(-c2ccc(F)cc2F)c2nc(N3C[C@@H](O)CC3=O)ccc2c1=O)c1c(F)cccc1F (mixture of isomers) [Example 214, 1-(2,4-Difluorophenyl)-N-[1-(2,6-difluorophenyl)ethyl]-7-[(4S)-4-hydroxy-2-oxopyrrolidin-1-yl]-4-oxo-1,4-dihydro-1,8-naphthyridine-3-carboxamide]	
		CCC(NC(=O)c1cn(-c2c(F)cc(F)cc2F)c2nc(N3C[C@@H](O)[C@H](O)C3)ccc2c1=O)C(F)(F)C(F)(F)F (single isomer, unassigned) [Example 524]	60
9		CN(C)c1ccc2c(=O)c(C(=O)NCc3c(Cl)cccc3C(F)(F)F)cn(-c3ccc(F)cc3F)c2n1 [Example 58, N-[2-Chloro-6-(trifluoromethyl)benzyl]-1-(2,4-difluorophenyl)-7-(dimethylamino)-4-oxo-1,4-dihydro-l,8-naphthyridine-3-carboxamide]	
27		CC[C@H](NC(=O)c1cn(-c2c(F)cc(F)cc2F)c2nc(N3CCN(CCO)C3=O)ccc2c1=O)C(F)(F)F [Example 362, 7-[3-(2-Hydroxyethyl)-2-oxoimidazolidin-1-yl]-4-oxo-N-[(2S)-1,1,1-trifluorobutan-2-yl]-1-(2,4,6-trifluorophenyl)-1,4-dihydro-1,8-naphthyridine-3-carboxamide]	
